Tests used:
[1] = Example 1: liver glycogen content after starvation in week 16; format: in vivo, C57BL/6J mice; settings: 24 h starvation, L-glutamine plus exercise, FIG. 5
Experimental: The results of glycogen contents in the liver after starvation were the same trends as plasma insulin concentrations (FIG. 5).
(§1) Fifty male C57BL/6J mice, 9 weeks old, were used herein. […] The experiment was conducted for 16 weeks. The mice exercised on a treadmill at moderate intensity (at 4.0 m/min) for 30 minutes a day, 5 days a week. It is known that oxygen consumption (VO2) strongly correlates with exercise intensity. However, VO2 reaches the plateau at a certain point as exercise intensity increases, which is defined as maximum oxygen consumption (VO2max). Percentage of maximum oxygen consumption (% VO2max) is one of the common ways to indicate the exercise intensity. According to Schefer V. and Talan M. I. (Exp. Gerontol. 31:387 (1996)), a running speed of 3-4 m/min which was the same intensity of exercise used herein produced a VO2 equivalent to 54-58% of the VO2max in adult C57BL/6J mice. In 16 weeks of the experiment, plasma and liver samples were obtained after overnight starvation.

[2] = Example 1: fasting plasma insulin concentration in week 16; format: in vivo, C57BL/6J mice; settings: FIG. 4
Experimental: as §1

[3] = Example 1: body weight of mice on high fat diet containing L-glutamine, with or without treadmill exercise; format: in vivo, C57BL/6J mice
Experimental: as §1
Relative body weight to the LF group in week 5, 10, and 16 are shown in FIGS. 1, 2, and 3, respectively.
Applying to a human, assuming a life span of 70 years, 10 weeks and 4 months for mice correspond to 7 and 12 years for a human, respectively.

[4] = Example 2: body weight, epididymal fat and abdominal fats after 6 weeks of high fat diet containing L-glutamine; format: in vivo, C57BL/6J mice; settings: high fat diet containing 3.6% or 6.0% of L-glutamine
Experimental: Forty of male C57BL/6J mice, age 5 weeks, were used herein. […] After 6 weeks of the diet feedings, body weight and epididymal fat weight were measured.

[5] = Solubility limit of L-glutamine in liquid product; format: physicochemical

NC(=O)CC[C@H](N)C(=O)O [L-glutamine]
remaining glycogen content in the liver after starvation [1]: the lowest | plasma insulin concentrations ([2]; L-glutamine administration alone, high fat feeding): reduced plasma insulin concentrations | plasma insulin concentrations ([2]; combination of L-glutamine administration and exercise): the lowest and was close to that of LF group | body weight gain by high fat feeding ([3]; week 5, exercise groups, 6.0% L-glutamine plus exercise (6Q+EX) vs HF+EX, FIG. 1): prevented considerably | rate of body weight gain ([3]; week 5, non-exercise groups, high fat diet containing 6.0% of L-glutamine (6Q) vs HF, FIG. 1): did not reduce the rate of body weight gain | synergistic effect of L-glutamine and exercise on body weight gain ([3]; week 10, 6Q+EX, FIG. 2): synergistic effect lasted for 10 weeks | combined effects on body weight ([3]; week 16, 6Q+EX compared to HF+EX, FIG. 3): combined effects disappeared in week 16, although lower body weight was still observed | weights of abdominal fats [4]: decreased in a dose-dependent manner | weights of epididymal fat ([4]; FIG. 7): decreased in a dose-dependent manner | rates of body weight gain ([4]; no exercise, FIG. 6): reduced by L-glutamine administrations in a dose-dependent manner | solubility limit ([5]; 0° C.): 8.3 g per 473 milliliters | solubility limit ([5]; 18° C.): 12.3 g per 473 milliliters | solubility limit ([5]; 30° C.): 22.7 g per 473 milliliters
